Consider 13 compounds from patent publication US9422297B2, “Tricyclic compounds having cytostatic and/or cytotoxic activity and methods of use thereof” (Duquesne University of the Holy Ghost, priority 2007, dated 2016).

Like-named read-outs stand apart in the source and are kept apart here.

One data set has as its target PDGFR-β kinase (Homo sapiens (Human), UniProt P09619). Description: PDGFR-β kinase inhibition. The format is biochemical.
Another data set in a line: A431 cytotoxicity assay. The format is cell-based. The note with it: human, A431 cells.
Another data set deals with EGFR kinase (Homo sapiens (Human), UniProt P00533). The experiment in a line: EGFR kinase inhibition. It is filed as biochemical.
In the next data set the target is Flk-1 kinase (Homo sapiens (Human), UniProt P35968). Description: Flk-1 kinase inhibition. It is filed as biochemical. The note with it: Table 3.
In another data set the target is VEGFR-2 kinase (Homo sapiens (Human), UniProt P35968). The experiment in a line: VEGFR-2 kinase inhibition. The format is biochemical. The note with it: Table 1.
In data set [1] the test system is COLO-205 metastatic human colon cancer cells. Description: COLO-205 tumors implanted in athymic mice. The format is in vivo.
Data set [2] deals with Thymidylate synthase (Homo sapiens (Human), UniProt P04818). The experiment in a line: Thymidylate synthase inhibition, human. It is filed as biochemical. The note with it: Human TS.
The target in data set [3] is Thymidylate synthase (Escherichia coli (strain K12), UniProt P0A884). Description: Thymidylate synthase inhibition, E. coli. The format is biochemical.
Data set [4] concerns the target Thymidylate synthase (Toxoplasma gondii, UniProt Q07422). Description: Thymidylate synthase inhibition, Toxo. The format is biochemical.
The test system of the next data set is CAM angiogenesis. Description: CAM assay, inhibition of angiogenesis. The format is in vivo. Conditions: Table 3.
Setting [5] is: Table 3, read-out: PDGFR-β kinase.
Setting [6] is: athymic mice, 25 mg/kg 3× weekly.

Sequence of PDGFR-β kinase (P09619 33-1106): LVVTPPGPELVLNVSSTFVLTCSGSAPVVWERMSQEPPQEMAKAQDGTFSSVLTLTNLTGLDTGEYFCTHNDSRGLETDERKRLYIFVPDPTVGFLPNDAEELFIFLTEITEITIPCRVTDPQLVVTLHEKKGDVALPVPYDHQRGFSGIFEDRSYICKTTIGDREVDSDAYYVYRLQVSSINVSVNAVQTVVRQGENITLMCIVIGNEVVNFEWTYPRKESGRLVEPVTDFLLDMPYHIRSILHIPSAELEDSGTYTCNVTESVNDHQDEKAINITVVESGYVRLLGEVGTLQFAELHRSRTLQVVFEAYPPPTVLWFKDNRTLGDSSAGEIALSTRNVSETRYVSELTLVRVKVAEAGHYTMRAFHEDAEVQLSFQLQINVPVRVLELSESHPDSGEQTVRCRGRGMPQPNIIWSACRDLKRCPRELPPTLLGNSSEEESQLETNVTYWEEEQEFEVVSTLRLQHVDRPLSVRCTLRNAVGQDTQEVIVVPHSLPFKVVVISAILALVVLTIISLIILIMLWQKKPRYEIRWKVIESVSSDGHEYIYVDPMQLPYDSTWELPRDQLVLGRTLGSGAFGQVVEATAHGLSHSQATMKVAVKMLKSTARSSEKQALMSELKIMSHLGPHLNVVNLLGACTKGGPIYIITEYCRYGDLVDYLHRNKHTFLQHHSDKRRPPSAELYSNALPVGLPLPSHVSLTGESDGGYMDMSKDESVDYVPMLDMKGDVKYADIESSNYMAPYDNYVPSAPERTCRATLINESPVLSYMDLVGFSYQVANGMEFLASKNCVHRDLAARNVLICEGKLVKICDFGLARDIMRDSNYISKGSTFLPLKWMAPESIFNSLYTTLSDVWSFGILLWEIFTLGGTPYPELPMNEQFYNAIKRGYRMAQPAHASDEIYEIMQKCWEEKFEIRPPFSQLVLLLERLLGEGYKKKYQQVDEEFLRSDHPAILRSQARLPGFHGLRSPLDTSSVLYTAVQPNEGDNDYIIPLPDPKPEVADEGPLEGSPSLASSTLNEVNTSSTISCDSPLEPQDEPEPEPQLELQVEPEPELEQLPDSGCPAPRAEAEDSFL
Sequence of Thymidylate synthase (Homo sapiens (Human), UniProt P04818) (P04818 whole entry): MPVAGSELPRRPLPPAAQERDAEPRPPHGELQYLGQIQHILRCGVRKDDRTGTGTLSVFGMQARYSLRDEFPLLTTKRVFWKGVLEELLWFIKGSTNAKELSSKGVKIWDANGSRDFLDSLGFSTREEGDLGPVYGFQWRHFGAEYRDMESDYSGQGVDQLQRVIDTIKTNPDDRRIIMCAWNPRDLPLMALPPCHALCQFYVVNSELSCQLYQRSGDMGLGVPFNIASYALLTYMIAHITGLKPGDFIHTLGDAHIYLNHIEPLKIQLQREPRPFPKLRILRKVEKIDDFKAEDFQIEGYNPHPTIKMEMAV
Sequence of Flk-1 kinase (P35968 20-1356): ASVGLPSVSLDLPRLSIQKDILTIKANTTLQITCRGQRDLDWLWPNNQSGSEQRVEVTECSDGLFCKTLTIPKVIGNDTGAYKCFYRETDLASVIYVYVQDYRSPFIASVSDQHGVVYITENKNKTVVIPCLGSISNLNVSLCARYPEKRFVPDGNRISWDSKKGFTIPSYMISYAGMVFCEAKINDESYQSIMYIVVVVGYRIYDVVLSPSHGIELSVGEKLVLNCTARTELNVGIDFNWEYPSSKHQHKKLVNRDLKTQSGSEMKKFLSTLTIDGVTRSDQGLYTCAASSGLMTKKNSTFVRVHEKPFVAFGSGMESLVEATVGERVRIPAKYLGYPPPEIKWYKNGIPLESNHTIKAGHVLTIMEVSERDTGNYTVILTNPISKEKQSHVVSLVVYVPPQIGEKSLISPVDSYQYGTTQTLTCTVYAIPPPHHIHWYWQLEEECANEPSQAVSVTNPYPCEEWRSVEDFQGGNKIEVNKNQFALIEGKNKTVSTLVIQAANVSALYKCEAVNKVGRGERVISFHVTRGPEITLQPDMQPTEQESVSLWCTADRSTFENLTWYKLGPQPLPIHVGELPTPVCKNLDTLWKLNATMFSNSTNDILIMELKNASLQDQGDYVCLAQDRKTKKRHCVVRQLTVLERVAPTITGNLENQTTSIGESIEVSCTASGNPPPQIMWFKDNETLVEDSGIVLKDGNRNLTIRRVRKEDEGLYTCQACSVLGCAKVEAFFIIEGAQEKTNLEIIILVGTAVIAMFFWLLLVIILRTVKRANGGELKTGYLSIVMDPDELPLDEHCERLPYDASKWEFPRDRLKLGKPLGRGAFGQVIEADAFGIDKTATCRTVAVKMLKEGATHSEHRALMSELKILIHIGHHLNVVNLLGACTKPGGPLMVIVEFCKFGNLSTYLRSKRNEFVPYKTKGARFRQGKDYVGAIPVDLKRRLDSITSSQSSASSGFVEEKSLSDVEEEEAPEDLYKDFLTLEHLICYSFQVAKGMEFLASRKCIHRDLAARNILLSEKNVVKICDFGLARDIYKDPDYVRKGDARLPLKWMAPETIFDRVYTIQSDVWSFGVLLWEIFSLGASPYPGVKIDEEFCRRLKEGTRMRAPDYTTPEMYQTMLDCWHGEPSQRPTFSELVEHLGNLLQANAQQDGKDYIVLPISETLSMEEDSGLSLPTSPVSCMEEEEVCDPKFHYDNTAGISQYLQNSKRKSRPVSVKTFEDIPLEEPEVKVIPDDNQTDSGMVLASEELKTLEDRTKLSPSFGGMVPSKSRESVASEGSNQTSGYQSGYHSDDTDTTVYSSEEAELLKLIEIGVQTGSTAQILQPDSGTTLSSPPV
Sequence of EGFR kinase (P00533 25-1210): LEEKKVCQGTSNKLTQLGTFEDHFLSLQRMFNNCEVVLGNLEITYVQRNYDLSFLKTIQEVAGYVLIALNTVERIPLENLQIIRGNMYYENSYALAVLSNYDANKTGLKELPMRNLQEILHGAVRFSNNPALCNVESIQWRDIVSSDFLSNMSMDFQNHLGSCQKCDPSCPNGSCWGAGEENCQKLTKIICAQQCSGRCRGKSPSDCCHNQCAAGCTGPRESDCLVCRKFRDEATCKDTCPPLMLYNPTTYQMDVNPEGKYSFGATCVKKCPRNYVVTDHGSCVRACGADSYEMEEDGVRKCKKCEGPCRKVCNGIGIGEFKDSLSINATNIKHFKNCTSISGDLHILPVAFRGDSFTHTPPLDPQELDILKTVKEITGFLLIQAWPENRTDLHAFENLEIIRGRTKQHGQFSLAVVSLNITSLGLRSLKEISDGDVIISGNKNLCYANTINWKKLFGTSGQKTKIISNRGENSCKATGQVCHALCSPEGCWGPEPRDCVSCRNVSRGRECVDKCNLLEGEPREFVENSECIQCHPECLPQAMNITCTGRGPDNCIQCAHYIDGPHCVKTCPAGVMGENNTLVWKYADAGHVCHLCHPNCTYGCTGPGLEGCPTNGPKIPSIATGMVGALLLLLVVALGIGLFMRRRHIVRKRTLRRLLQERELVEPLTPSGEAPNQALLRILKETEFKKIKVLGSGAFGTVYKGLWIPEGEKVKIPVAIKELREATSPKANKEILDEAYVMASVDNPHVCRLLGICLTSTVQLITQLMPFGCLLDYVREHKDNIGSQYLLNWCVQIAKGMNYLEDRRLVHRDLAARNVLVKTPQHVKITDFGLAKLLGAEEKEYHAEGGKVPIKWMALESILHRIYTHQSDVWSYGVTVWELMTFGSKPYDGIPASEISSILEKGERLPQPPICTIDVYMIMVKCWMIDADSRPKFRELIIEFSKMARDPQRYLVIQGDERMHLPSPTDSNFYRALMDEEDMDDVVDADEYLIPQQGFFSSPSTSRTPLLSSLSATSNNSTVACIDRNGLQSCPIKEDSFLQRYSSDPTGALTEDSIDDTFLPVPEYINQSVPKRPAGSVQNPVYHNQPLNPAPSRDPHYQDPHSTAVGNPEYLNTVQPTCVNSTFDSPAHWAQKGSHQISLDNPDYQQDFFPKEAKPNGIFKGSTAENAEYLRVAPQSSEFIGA
Sequence of Thymidylate synthase (Escherichia coli (strain K12), UniProt P0A884) (P0A884 whole entry, looked up): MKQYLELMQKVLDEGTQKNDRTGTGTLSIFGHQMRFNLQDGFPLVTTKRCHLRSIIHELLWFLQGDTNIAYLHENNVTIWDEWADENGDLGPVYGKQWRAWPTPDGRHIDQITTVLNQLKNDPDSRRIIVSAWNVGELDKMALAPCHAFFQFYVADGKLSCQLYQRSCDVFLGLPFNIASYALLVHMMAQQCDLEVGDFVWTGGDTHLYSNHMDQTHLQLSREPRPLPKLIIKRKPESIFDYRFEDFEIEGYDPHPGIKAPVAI
Sequence of VEGFR-2 kinase (P35968 20-1356): as the sequence (P35968 20-1356) above

For the compound `CC(C)c1ccccc1Nc1nc(N)nc2c1-c1ccccc1C2` [AAG145-124], the IC50 was 21.7 µM on PDGFR-β kinase (setting [5]); 126 µM in the data set “A431 cytotoxicity assay” (Table 3); greater than 200 µM at EGFR kinase (Table 3, read-out: EGFR kinase); greater than 200 µM at Flk-1 kinase.

With `CC(C)c1ccc(Nc2nc(N)nc3c2-c2ccccc2C3)cc1` [AAG145-126], the IC50 at PDGFR-β kinase (setting [5]) turned out to be 7.8 µM; in “A431 cytotoxicity assay” (Table 3), 126 µM; on EGFR kinase (Table 3, read-out: EGFR kinase) it was 42.6 µM; against Flk-1 kinase, 11 µM.

Turning to `Nc1nc2c(c(Nc3cccc(Br)c3)n1)-c1ccccc1C2` [AAG145-131], the IC50 on PDGFR-β kinase (setting [5]) is 126 µM; in the data set “A431 cytotoxicity assay” (Table 3), greater than 5000 µM; at EGFR kinase (Table 3, read-out: EGFR kinase), 24.1 µM; on Flk-1 kinase, greater than 200 µM.

Regarding `Nc1nc2c(c(Nc3ccc(Cl)cc3F)n1)-c1ccccc1C2` [AAG145-135], the IC50 in the data set “A431 cytotoxicity assay” (Table 3) came out at 9.7 µM; at EGFR kinase (Table 3, read-out: EGFR kinase), 11.7 µM; on Flk-1 kinase, 197 µM.

As for `Nc1nc2c(c(Nc3cccc(Cl)c3)n1)-c1ccccc1C2` [AAG145-157], the IC50 on PDGFR-β kinase (setting [5]) is greater than 500 µM; in the data set “A431 cytotoxicity assay” (Table 3), 235 µM; at EGFR kinase (Table 3, read-out: EGFR kinase), 19.6 µM; against Flk-1 kinase it was 134 µM.

`Nc1nc2c(c(Nc3ccccc3)n1)-c1ccccc1C2` [AAG145-158]: the IC50 was 43.1 µM on PDGFR-β kinase (setting [5]); 4.9 µM in the data set “A431 cytotoxicity assay” (Table 3); greater than 200 µM at EGFR kinase (Table 3, read-out: EGFR kinase); 171 µM on Flk-1 kinase.

As to `COc1cccc(Nc2nc(N)nc3c2-c2ccccc2C3)c1` [AAG145-159], the IC50 was 75.5 µM on PDGFR-β kinase (setting [5]); 13.9 µM in “A431 cytotoxicity assay” (Table 3); greater than 200 µM on EGFR kinase (Table 3, read-out: EGFR kinase); 43 µM at Flk-1 kinase.

For `Nc1nc2c(c(Nc3cccc(F)c3)n1)-c1ccccc1C2` [AAG145-161], the IC50 on PDGFR-β kinase (setting [5]) is 7.1 µM; in the data set “A431 cytotoxicity assay” (Table 3) it was 9.8 µM; on EGFR kinase (Table 3, read-out: EGFR kinase), greater than 200 µM; on Flk-1 kinase, 55.7 µM.

As to `Nc1nc2c(c(Nc3ccc(F)c(Cl)c3)n1)-c1ccccc1C2` [AAG145-164], the IC50 was 6.4 µM at PDGFR-β kinase (setting [5]); 158 µM in “A431 cytotoxicity assay” (Table 3); greater than 200 µM at EGFR kinase (Table 3, read-out: EGFR kinase); 72.9 µM on Flk-1 kinase.

Take `Nc1nc(N)c2c(n1)[nH]c1cccc(Sc3ccccc3)c12` [AAG-148-43, 5-(phenylthio)-9H-pyrimido[4,5-b]indole-2,4-diamine]: the IC50 was 2.8 µM at PDGFR-β kinase (Table 1, read-out: PDGFR-β kinase inhibition); 49.2 µM in “A431 cytotoxicity assay” (Table 1); 22.6 µM on VEGFR-2 kinase; 15.1 µM at EGFR kinase (Table 1, read-out: EGFR kinase inhibition); 0.54 µM on Thymidylate synthase [2]; greater than 27 µM on Thymidylate synthase [3]. The “metastasis to the liver of COLO-205 cells” value in data set [1] (setting [6]) is “significantly reduced metastasis to the liver”. Further, in data set [1] (setting [6]), the “vascularity of COLO-205 primary tumors” value is “reduced vascularity much better than DMBI”. Besides, the “primary tumor growth of COLO-205” value in [1] (athymic mice, 25 mg/kg three times a week) is given as “significantly reduced the growth”. The “apparent toxicity (loss in weight of the animals)” value in data set [1] (mice, 25 mg/kg three times weekly) is “no apparent toxicity”.

Consider `Cc1ccc(Sc2cccc3[nH]c4nc(N)nc(N)c4c23)cc1` [AAG-148-311, 5-[(4-methylphenyl)thio]-9H-pyrimido[4,5-b]indole-2,4-diamine], for which the IC50 at Thymidylate synthase [2] was found to be 0.39 µM; against Thymidylate synthase [4], 0.18 µM.

Turning to `Nc1nc2[nH]cc(CCc3ccc(C(=O)N[C@@H](CCC(=O)O)C(=O)O)cc3)c2c(=O)[nH]1` [Pemetrexed, reference compound], the IC50 against Thymidylate synthase [2] was determined as 29 µM; at Thymidylate synthase [3] (E. coli TS, read-out: Thymidylate synthase inhibition E. coli) it was 15 µM.

With `Cc1cc(C)c(/C=C2\C(=O)Nc3ccccc32)[nH]1` [SU5416, reference compound], the values for the IC50 in the data set “A431 cytotoxicity assay” (Table 3) and with CAM angiogenesis were […] and 0.032 ± 0.005 µM, respectively.
